Where “and” joins values, the source holds several entries; their conditions need not be identical. Equal values may be shown once. Read-outs that look alike come from different tables or passages of the source.
What was measured:
[1] = test system: MiaPaCa2 human pancreatic cancer cells; experiment: inhibition of proliferation, Alamar blue, 72 h; format: cell-based
Protocol: The ability of selected compounds from the libraries 6, 15 and 19 to inhibit the growth of MiaPaCa2 human pancreatic cancer cells was investigated. Human pancreatic carcinoma (MiaPaCa2) cells were plated at a low confluency into 96-well tissue culture-treated plates. After allowing cells to attach and grow overnight at 37 degrees in a 5% CO2 incubator, growth medium was replaced with fresh medium (100 μl/well) containing compounds in a range from 0.1-100 μM. All treatments were made from 500× stock solutions in DMSO, and the control wells received an equivalent amount of DMSO in medium. After 72 hours of growth in the presence of the compounds, Alamar blue was added to the wells according to the manufacturer's instructions (Life Technologies, Grand Island, N.Y.) and cells were incubated in its presence for 2-3 hours. Fluorescence readings were performed using a Biotek Synergy II plate reader with […] wavelengths of 530/590 nm. […] Calculated IC50s are representative of at least three independent experiments.

LPAAT-β [2] = biological target: T1, LPAAT-β (Homo sapiens, UniProt O15120); experiment: DTNB (Ellman's reagent) 96-well plate screening assay of LPAAT-β enzymatic activity; format: biochemical; set-up: The assay utilizes full-length, recombinant, baculovirus-produced LPAAT-β; made in house
T1 sequence (O15120 24-278): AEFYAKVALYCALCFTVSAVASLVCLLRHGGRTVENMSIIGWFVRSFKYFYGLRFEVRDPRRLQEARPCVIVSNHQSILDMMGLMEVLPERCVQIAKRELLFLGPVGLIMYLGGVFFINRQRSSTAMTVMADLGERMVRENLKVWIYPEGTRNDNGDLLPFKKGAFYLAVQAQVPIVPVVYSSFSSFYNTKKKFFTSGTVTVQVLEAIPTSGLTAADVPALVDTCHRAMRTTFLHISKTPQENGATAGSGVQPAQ
Protocol: Screening with a modified screening assay in 96-well plate format for LPAAT-β enzymatic activity was performed as reported by Aguado and Campbell (Aguado et al., Characterization of a human lysophosphatidic acid acyltransferase that is encoded by a gene located in the class III region of the human major histocompatibility complex. J. Biol. Chem. 1998, 273, 4096-105).
The assay utilizes full-length, recombinant, baculovirus-produced LPAAT-β, which catalyzes the production of dioleoyl-[…] from the enzymatic substrates oleoyl-lysophosphatidic acid (LPA) and oleoyl-coenzyme A (Scheme 2). The ability of the compound to inhibit the LPAAT-β activity was assayed by the colorimetric measurement of the reaction of the free thiol group of the released coenzyme A with Ellman's reagent [5,5′-dithiobis-(2-nitrobenzoic acid) or DTNB] (Riener et al., Quick measurement of protein sulfhydryls with Ellman's reagent and with 4,4′-dithiodipyridine. Anal. Bioanal. Chem. 2002, 373, 266-76). […] A hit identified from the Life Chemicals library 6a (IC50 100 nM) was selected for further investigation.

LPAAT-β [3] = biological target: T1, LPAAT-β; experiment: secondary thin layer chromatography (TLC) assay measuring fluorescent PA; format: biochemical; set-up: The assay utilizes full-length, recombinant, baculovirus-produced LPAAT-β; made in house
LPAAT-β [4] = biological target: T1, LPAAT-β; conditions: previously reported inhibitors; cited from earlier work
[5] = read-out: IC50 (μM) (DTNB assay) (converted)
[6] = Table 4, read-out: IC50 (μm) (DTNB assay) (converted)

SMILES	IC50 (LPAAT-β [2]; [5])	IC50 (LPAAT-β [3])	IC50 (LPAAT-β [2]; [6])	IC50 (LPAAT-β [3]; Table 4)	other results
C=CCc1cccc(/C=N/NC(N)=S)c1O [Compound 6a]	0.86 ± 0.52 µM	33 ± 13 µM			IC50 ([1]; Homo sapiens, MIA PaCa-2): 38 ± 17 µM; IC50 (LPAAT-β [2]; hit from the Life Chemicals library, before resynthesis, read-out: IC50 of the hit in the library screen): 0.1 µM
CCOc1ccc(Cl)cc1-c1cc(N)nc(Nc2ccc(Cl)cc2)c1 [Compound 2]					in vitro activity against LPAAT-β enzyme activity, in words (LPAAT-β [4]): potent in vitro activity
CCc1cccc(C=NNC(N)=S)c1O [Compound 6j]	0.85 ± 0.56 µM	48 ± 15 µM			IC50 ([1]; Homo sapiens, MIA PaCa-2): 36 ± 20 µM
C=CCc1cccc(C=NN=c2scc(-c3ccccc3)n2C)c1O [Compound 11a]	> 100 µM	> 10 µM			LPAAT-β inhibitory activity in words (assay not given) (LPAAT-β [2]): inactive
C=CCc1cccc(C(C)=NNC(N)=S)c1O [Compound 15b]	0.52 ± 0.25 µM	> 10 µM			
CCc1cccc(C(C)=NNC(N)=S)c1O [Compound 15c]	0.73 ± 0.76 µM	> 10 µM			
CC(=NNC(N)=S)c1cc(Cl)ccc1O [Compound 15e]	2.8 µM	> 10 µM			
C=CCc1cc(Cl)cc(C(C)=NNC(N)=S)c1O [Compound 15d]	0.2 µM	32 µM			
C=CCc1cccc(C=NN=c2[nH]c(-c3ccccc3)cs2)c1O [Compound 11c]	> 100 µM	> 10 µM			
C#CCOC(=O)Nc1ccc(Cl)c(-c2nc3cc(Cl)ccc3o2)c1 [Compound 3]					in vitro activity against LPAAT-β enzyme activity, in words (LPAAT-β [4]): potent anti-enzymatic activity
CCCc1cccc(C(C)=NNC(N)=S)c1O [Compound 15a]	0.65 ± 0.42 µM	35 ± 18 µM			IC50 ([1]; Homo sapiens, MIA PaCa-2): 23 ± 15 µM
CCOc1ccc(Cl)cc1-c1cc(Nc2ccc(Cl)cc2)nc(N)n1 [Compound 1]					in vitro activity against LPAAT-β enzyme activity, in words (LPAAT-β [4]): potent in vitro activity

Now from value to molecule, other results behind:

IC50 (LPAAT-β [2]; [5])	IC50 (LPAAT-β [3])	IC50 (LPAAT-β [2]; [6])	IC50 (LPAAT-β [3]; Table 4)	SMILES	other results
0.67 ± 0.16 µM	9.2 ± 4.2 µM	0.67 ± 0.16 µM	9.2 ± 4.2 µM	C=CCc1cc(-c2ccc(C)c(Cl)c2)cc(C(C)=NNC(N)=S)c1O [Compound 19w]	IC50 [1]: 7.2 ± 3.1 µM
0.17 ± 0.09 µM	3.3 ± 1.2 µM	0.17 ± 0.09 µM	3.3 ± 1.2 µM	C=CCc1cc(Cl)cc(C(C)=NNC(N)=S)c1O [Compound 19a]	IC50 [1]: 14 ± 5.5 µM
0.18 ± 0.07 µM	4.2 ± 1.2 µM	0.18 µM	4.2 µM	C=CCc1cc(-c2ccc(Br)cc2)cc(C(C)=NNC(N)=S)c1O [Compound 19o]	IC50 [1]: 5.8 ± 1.6 µM
0.16 ± 0.07 µM	1.4 ± 1.1 µM	0.16 µM	1.4 µM	C=CCc1cc(CCCC)cc(C(C)=NNC(N)=S)c1O [Compound 19h]	IC50 [1]: 12 ± 3.3 µM
0.57 ± 0.27 µM	17 ± 7.3 µM	0.57 ± 0.27 µM	17 ± 7.3 µM	C=CCc1cc(-c2cc(Cl)cc(Cl)c2)cc(C(C)=NNC(N)=S)c1O [Compound 19t]	IC50 ([1]; Homo sapiens, MIA PaCa-2): 4.9 ± 2 µM
0.32 ± 0.07 µM	2.5 ± 1.4 µM	0.32 ± 0.07 µM	2.5 ± 1.4 µM	C=CCc1cc(-c2ccc(Cl)cc2)cc(C(C)=NNC(N)=S)c1O [Compound 19p]	IC50 [1]: 7.4 ± 2.3 µM
1.15 µM and 0.19 µM	5.7 ± 2.5 µM			C=CCc1cc(-c2ccccc2)cc(C(C)=NNC(N)=S)c1O [Compound 19n]	
		0.16 µM	1.4 µM	C=CCc1cc(C(C)C)cc(C(C)=NNC(N)=S)c1O [Compound 19g]	
		0.24 µM	24 µM	C=CCc1cc(F)cc(C(C)=NNC(N)=S)c1O [Compound 19b]	
0.28 ± 0.02 µM	> 10 µM	0.28 ± 0.02 µM	> 10 µM	C=CCc1cc(-c2cccc(C#N)c2)cc(C(C)=NNC(N)=S)c1O [Compound 19v]	IC50 ([1]; Homo sapiens, MIA PaCa-2): 7.8 ± 2.7 µM
		0.19 µM	3.2 µM	C=CCc1cc(CCCCC)cc(C(C)=NNC(N)=S)c1O [Compound 19j]	
		0.1 µM	4.1 µM	C=CCc1cc(Br)cc(C(C)=NNC(N)=S)c1O [Compound 19c]	
0.52 ± 0.23 µM	2.1 ± 0.9 µM	0.52 ± 0.23 µM	2.1 ± 0.9 µM	C=CCc1cc(-c2ccc(Cl)cc2Cl)cc(C(C)=NNC(N)=S)c1O [Compound 19r]	IC50 ([1]; Homo sapiens, MIA PaCa-2): 7.6 ± 0.9 µM
2.67 ± 0.25 µM	> 10 µM			C=CCc1cc(C(C)=O)cc(C(C)=NNC(N)=S)c1O [Compound 19l]	
